Source: PubChem BioAssay AID248 (DTP/NCI, 2004)
Inconclusive results and toxic doses are left out. Rule as the data show it: active = T/C of 150% or more; inactive = T/C below 125%.

Tested on: L1210 leukemia ip in BDF1 mice, survival T/C
Experiment: NCI In Vivo Anticancer Drug Screen. Data for tumor model L1210 Leukemia (intraperitoneal) in B6D2F1 (BDF1) mice
Settings: endpoint: mean survival time, higher = longer survival
Procedure, shortened: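 Transplantable tumor model; survival measured in treated vs vehicle control mice. Value = treated/control.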

[1] = dose: 75.0 mg/kg/injection, schedule: Q01DX001 (ip), vehicle: carboxymethylcellulose (CMC)
[2] = dose: 150.0 mg/kg/injection, schedule: Q01DX001 (ip), vehicle: carboxymethylcellulose (CMC)
[3] = dose: 100.0 mg/kg/injection, schedule: Q01DX001 (ip), vehicle: Klucel (hydroxypropylcellulose) (HPC)
[4] = dose: 100.0 mg/kg/injection, schedule: Q04DX003 (ip), vehicle: Klucel (hydroxypropylcellulose) (HPC)
[5] = dose: 200.0 mg/kg/injection, schedule: Q01DX001 (ip), vehicle: Klucel (hydroxypropylcellulose) (HPC)
[6] = dose: 200.0 mg/kg/injection, schedule: Q04DX003 (ip), vehicle: Klucel (hydroxypropylcellulose) (HPC)
[7] = dose: 400.0 mg/kg/injection, schedule: Q01DX001 (ip), vehicle: Klucel (hydroxypropylcellulose) (HPC)
[8] = dose: 100.0 mg/kg/injection, schedule: Q01DX009 (ip), vehicle: Klucel (hydroxypropylcellulose) (HPC)
[9] = dose: 200.0 mg/kg/injection, schedule: Q01DX009 (ip), vehicle: Klucel (hydroxypropylcellulose) (HPC)
[10] = dose: 400.0 mg/kg/injection, schedule: Q01DX009 (ip), vehicle: Klucel (hydroxypropylcellulose) (HPC)
[11] = dose: 100.0 mg/kg/injection, schedule: Q04DX002 (ip), vehicle: Klucel (hydroxypropylcellulose) (HPC)
[12] = dose: 25.0 mg/kg/injection, schedule: Q01DX009 (ip), vehicle: Klucel (hydroxypropylcellulose) (HPC)
[13] = dose: 50.0 mg/kg/injection, schedule: Q01DX009 (ip), vehicle: Klucel (hydroxypropylcellulose) (HPC)
[14] = dose: 50.0 mg/kg/injection, schedule: Q04DX003 (ip), vehicle: Klucel (hydroxypropylcellulose) (HPC)
[15] = dose: 50.0 mg/kg/injection, schedule: Q01DX001 (ip), vehicle: saline
[16] = dose: 100.0 mg/kg/injection, schedule: Q01DX001 (ip), vehicle: saline
[17] = dose: 200.0 mg/kg/injection, schedule: Q01DX001 (ip), vehicle: saline
[18] = dose: 100.0 mg/kg/injection, schedule: Q01DX009 (ip), vehicle: saline with Tween-80
[19] = dose: 100.0 mg/kg/injection, schedule: Q04DX003 (ip), vehicle: saline with Tween-80
[20] = dose: 200.0 mg/kg/injection, schedule: Q01DX009 (ip), vehicle: saline with Tween-80
[21] = dose: 200.0 mg/kg/injection, schedule: Q04DX003 (ip), vehicle: saline with Tween-80
[22] = dose: 400.0 mg/kg/injection, schedule: Q01DX009 (ip), vehicle: saline with Tween-80
[23] = dose: 400.0 mg/kg/injection, schedule: Q04DX003 (ip), vehicle: saline with Tween-80

Measured: T/C

C/C(CCO)=N/N=C(N)N
inactive: dose: 15.0 mg/kg/injection, schedule: Q01DX Z (ip), vehicle: methylcellulose (MC) 97 % of control | dose: 30.0 mg/kg/injection, schedule: Q01DX Z (ip), vehicle: methylcellulose (MC) 109 % of control | dose: 30.0 mg/kg/injection, schedule: Q01DX Z (oral), vehicle: methylcellulose (MC) 97 % of control | dose: 60.0 mg/kg/injection, schedule: Q01DX Z (oral), vehicle: methylcellulose (MC) 100 % of control

Cc1cccc(NC(=O)N(C)N)c1
inactive: [1] 96 % of control | [2] 104 % of control

C#CCCCCCCC#CCCCCCCC#C
inactive: dose: 100.0 mg/kg/injection, schedule: Q04DX003 (ip), vehicle: acetone 100 % of control | dose: 200.0 mg/kg/injection, schedule: Q04DX003 (ip), vehicle: acetone 110 % of control

O=[N+]([O-])c1cccc(/C=C/S(=O)(=O)c2ccccc2)c1
inactive: [3] 107 % of control | [4] 103 % of control | [5] 95 % of control | [6] 103 % of control | [7] 104 % of control | dose: 400.0 mg/kg/injection, schedule: Q04DX003 (ip), vehicle: Klucel (hydroxypropylcellulose) (HPC) 100 % of control

COc1ccc(C)cc1NC(=O)C1CC1
inactive: [8] 103 % of control | [9] 113 % of control | [10] 104 % of control

Cc1cc(N)ccc1/C=C/C(=O)O
inactive: dose: 100.0 mg/kg/injection, schedule: Q04DX003 (ip), vehicle: saline 97 % of control | dose: 200.0 mg/kg/injection, schedule: Q04DX003 (ip), vehicle: saline 98 % of control | dose: 400.0 mg/kg/injection, schedule: Q04DX003 (ip), vehicle: saline 93 % of control

COC(=O)C(=O)CC(=O)c1ccc([N+](=O)[O-])cc1
inactive: [11] 95 % of control | dose: 200.0 mg/kg/injection, schedule: Q04DX002 (ip), vehicle: Klucel (hydroxypropylcellulose) (HPC) 95 % of control | dose: 400.0 mg/kg/injection, schedule: Q04DX002 (ip), vehicle: Klucel (hydroxypropylcellulose) (HPC) 103 % of control

O=C(c1ccc(Cl)cc1)c1cccc[n+]1Cc1ccccc1
inactive: dose: 12.5 mg/kg/injection, schedule: Q04DX003 (ip), vehicle: Klucel (hydroxypropylcellulose) (HPC) 102 % of control | [12] 103 % of control | dose: 25.0 mg/kg/injection, schedule: Q04DX003 (ip), vehicle: Klucel (hydroxypropylcellulose) (HPC) 101 % of control | [13] 103 % of control | [14] 94 % of control | [8] 119 % of control | [4] 97 % of control

Cc1ccc([I+]c2ccccc2C(=O)[O-])c(C)c1
inactive: [15] 98 % of control | [16] 102 % of control | [17] 104 % of control

Cc1ccc(N=Nc2c(C)nc(N)nc2C)cc1
inactive: dose: 75.0 mg/kg/injection, schedule: Q01DX001 (ip), vehicle: saline 97 % of control | dose: 150.0 mg/kg/injection, schedule: Q01DX001 (ip), vehicle: saline 91 % of control

COc1cccc(N=Nc2c(N)nc(N)nc2N)c1
inactive: [1] 104 % of control | [2] 100 % of control | dose: 300.0 mg/kg/injection, schedule: Q01DX001 (ip), vehicle: carboxymethylcellulose (CMC) 109 % of control

O=C1OC(=O)C2C3CC(C(Br)C3C(F)(Br)Br)C12 (centres undefined)
inactive: [18] 87 % of control | [19] 115 % of control | [20] 93 % of control | [21] 98 % of control | [22] 90 % of control | [23] 91 % of control

CCCCCOC(=O)c1ccccc1C(=O)OCCCCC
inactive: dose: 50.0 mg/kg/injection, schedule: Q01DX001 (ip), vehicle: Klucel (hydroxypropylcellulose) (HPC) 103 % of control | [3] 110 % of control | [5] 104 % of control

O=C(Nc1cccc2cccnc12)C(F)(F)F
inactive: [15] 91 % of control | [16] 104 % of control | [17] 91 % of control | dose: 400.0 mg/kg/injection, schedule: Q01DX001 (ip), vehicle: saline 93 % of control

CCN(CC)CCCC#CCN1CCCC1
inactive: [13] 92 % of control | [8] 100 % of control | [4] 91 % of control | [6] 100 % of control

CCCCNC(=NC)c1ccc(NC(=O)Nc2ccc(NC(=O)Nc3ccc(C(=NC)NCCCC)cc3)cc2)cc1
inactive: dose: 2.0 mg/kg/injection, schedule: Q01DX Z (ip), vehicle: methylcellulose (MC) 103 % of control | dose: 3.9 mg/kg/injection, schedule: Q01DX Z (ip), vehicle: methylcellulose (MC) 96 % of control

CC1(C)CC(=O)C(C)(C)C(=O)C1 (tested in a mixture with another compound)
inactive: dose: 25.0 mg/kg/injection, schedule: Q04DX002 (ip), vehicle: Klucel (hydroxypropylcellulose) (HPC) 102 % of control | dose: 50.0 mg/kg/injection, schedule: Q04DX002 (ip), vehicle: Klucel (hydroxypropylcellulose) (HPC) 96 % of control | [11] 108 % of control

O=S(=O)(Nc1cc(Cl)ccc1Cl)c1ccc(Cl)cc1
inactive: [18] 92 % of control | [20] 102 % of control | [22] 92 % of control

CC(=O)Nc1ccc([N+](=O)[O-])c(NC(C)=O)n1
inactive: [8] 103 % of control | [19] 101 % of control | [9] 100 % of control | [21] 93 % of control | [10] 97 % of control | [23] 112 % of control

C=C(Br)CNCCCCCC
inactive: dose: 12.5 mg/kg/injection, schedule: Q01DX009 (ip), vehicle: Klucel (hydroxypropylcellulose) (HPC) 94 % of control | [12] 111 % of control

O=C(c1ccccc1)C1C(c2ccccc2)N1Cc1ccccc1 (centres undefined)
inactive: [14] 102 % of control | [3] 87 % of control | [8] 100 % of control | [4] 98 % of control | [5] 88 % of control | [6] 98 % of control | [7] 95 % of control

CN(C)c1ncnc2nsnc12
inactive: [19] 100 % of control

CC(C)=CCC/C(C)=C/CN1C(=O)CC(C)=C(C)C1=O
inactive: [18] 97 % of control | [19] 95 % of control | [20] 95 % of control | [21] 104 % of control | [22] 95 % of control | [23] 95 % of control

NC(Cc1cnc(N=Nc2ccc(C(=O)O)cc2)[nH]1)C(=O)O (centres undefined)
inactive: dose: 50.0 mg/kg/injection, schedule: Q01DX009 (ip), vehicle: saline with Tween-80 100 % of control | [18] 95 % of control | [20] 103 % of control

CCOc1ccc(/C=N/Nc2nnc(N/N=C/c3ccc(OCC)c(OCC)c3)c3ccccc23)cc1OCC
inactive: dose: 50.0 mg/kg/injection, schedule: Q01DX001 (ip), vehicle: carboxymethylcellulose (CMC) 95 % of control
